Our source for the IC50 and t1/2 values is ChEMBL document CHEMBL5036363, “Discovery and Lead Optimization of Benzene-1,4-disulfonamides as Oxidative Phosphorylation Inhibitors” (J Med Chem, 2022).

Bounds are passed on as bounds.

For data set [1], the system named is BXPC-3. Nature of the data set: Cytotoxicity against human BXPC-3 cells assessed as inhibition of cell growth incubated for 7 days in glucose-containing medium by MTT assay. Format: functional, cell-based. The note with it: BXPC-3, 168 h. For orientation: Tetrazolium dyes change colour on reduction, which living cells bring about.
Data set [2] deals with MIA PaCa-2. Description: Cytotoxicity against human MIA PaCa-2 cells assessed as inhibition of cell growth incubated for 3 days in galactose-containing medium by MTT assay. Format: functional, cell-based. The conditions noted are these: MIA PaCa-2, 72 h.
Data set [3] deals with MIA PaCa-2. Nature of the data set: Cytotoxicity against human MIA PaCa-2 cells assessed as inhibition of cell growth incubated for 3 days in glucose-containing medium by MTT assay. Format: functional, cell-based. The note with it: MIA PaCa-2, 72 h.
The test system of data set [4] is MIA PaCa-2. Description: Cytotoxicity against human MIA PaCa-2 cells assessed as inhibition of cell growth incubated for 7 days in glucose-containing medium by MTT assay. The note with it: MIA PaCa-2, 168 h. The data set is classed as functional, cell-based.
Data set [5] is described as follows: Microsomal stability in human liver microsomes assessed as half life at 10 uM measured upto 60 mins by LC-MS/MS analysis. The data set is classed as ADME, Microsome. The conditions noted are these: microsomes, 1 h, 10 µM. (In general: Microsomes from liver hold many membrane-bound enzymes, among them those of drug oxidation.)
The nature of data set [6]: Microsomal stability in mouse liver microsomes assessed as half life at 10 uM measured upto 60 mins by LC-MS/MS analysis. Format: ADME, Microsome. The conditions noted are these: microsomes, 1 h, 10 µM.

As for `CCOC(=O)[C@@H]1C[C@@H](O)CN(S(=O)(=O)c2ccc(S(=O)(=O)N(CC)CC)cc2)C1` (relative stereo), the IC50 was 10.8 µM in data set [1], more than 10 µM in data set [2], 2.1 µM in data set [3] and 7.9 µM in data set [4].

Take `CCN(CC)S(=O)(=O)c1ccc(S(=O)(=O)N2CCC[C@@H](c3nc(C)no3)C2)cc1`: the IC50 in data set [1] was 2.9 µM; in data set [2], more than 10 µM; in data set [3], 0.7 µM; in data set [4], 4.1 µM.

Consider `CCOC(=O)[C@@H]1CCCN(S(=O)(=O)c2cccc(S(=O)(=O)N(CC)CC)c2)C1`, for which the IC50 in data set [1] is more than 30 µM; in data set [2] it was more than 10 µM; in data set [3], more than 10 µM; in data set [4], more than 30 µM.

In the case of `CCOC(=O)[C@@H]1CCCN(S(=O)(=O)c2ccc(S(=O)(=O)N(CC)CC)nc2)C1`, the IC50 in data set [1] was 8 µM; in data set [2], more than 10 µM; in data set [3] it was 1.6 µM; in data set [4] it was 5.6 µM.

In the case of `CCCN(CCC)S(=O)(=O)c1ccc(S(=O)(=O)N2CCC[C@@H](C(=O)OCC)C2)cc1`, the IC50 in data set [1] was 2.5 µM; in data set [2], more than 10 µM; in data set [3], 0.6 µM; in data set [4], 2.3 µM.

Take `CCN(CC)C(=O)[C@@H]1CCCN(S(=O)(=O)c2ccc(S(=O)(=O)N(CC)CC)cc2)C1`: the IC50 was 10.5 µM in data set [1], more than 10 µM in data set [2], 0.7 µM in data set [3] and 6.4 µM in data set [4].

Regarding `CCOC(=O)[C@@H]1CCCN(S(=O)(=O)c2ccc(S(=O)(=O)N(CC)CC)c(F)c2)C1`, the IC50 was 1.6 µM in data set [1], more than 10 µM in data set [2], 0.2 µM in data set [3] and 0.9 µM in data set [4].

As for `CCN(CC)S(=O)(=O)c1ccc(S(=O)(=O)N2CCC[C@@H](C(=O)N[C@@H]3CCN(C(=O)OC(C)(C)C)C3)C2)cc1`, the IC50 is 0.4 µM in data set [1], more than 10 µM in data set [2], 0.5 µM in data set [3] and 0.2 µM in data set [4].

Take `CCN(CC)S(=O)(=O)c1ccc(S(=O)(=O)N2CCC[C@@H](C(=O)N[C@H]3CCN(C(=O)OC(C)(C)C)C3)C2)cc1`: the IC50 in data set [1] was 0.3 µM; in data set [2] it was more than 10 µM; in data set [3], 0.17 µM; in data set [4] it was 0.1 µM.

Consider `CCOC(=O)N1CCC[C@H](S(=O)(=O)c2ccc(S(=O)(=O)N(CC)CC)cc2)C1`, for which the IC50 in data set [1] is more than 30 µM; in data set [2] it was more than 10 µM; in data set [3] it was more than 10 µM; in data set [4], more than 30 µM.

As to `CCN(CC)S(=O)(=O)c1ccc(S(=O)(=O)N2CCC[C@@H](C(=O)N3CCC(c4nc(C(C)C)no4)CC3)C2)cc1`, the IC50 was 0.3 µM in data set [1], more than 10 µM in data set [2], 0.03 µM in data set [3] and 0.04 µM in data set [4].

`CCOC(=O)[C@@H]1CCCN(S(=O)(=O)c2ccc(S(=N)(=O)N(CC)CC)cc2)C1` (some centres not stated): the IC50 in data set [1] was 3.6 µM; in data set [2], more than 10 µM; in data set [3], 0.9 µM; in data set [4] it was 2.6 µM.

As for `CCOC(=O)[C@@H]1CCC[C@@H](S(=O)(=O)c2ccc(S(=O)(=O)N(CC)CC)cc2)C1` (relative stereo), the concentration for half-maximal inhibition (IC50) in data set [1] is 18.5 µM; in data set [2], more than 10 µM; in data set [3] it was 5 µM; in data set [4], 16.4 µM.

Consider `CCOC(=O)C1CN(S(=O)(=O)c2ccc(S(=O)(=O)N(CC)CC)cc2)C1`, for which the IC50 in data set [1] was 12.7 µM; in data set [2] it was more than 10 µM; in data set [3], 0.8 µM; in data set [4], 13.9 µM.

For the compound `CCN(CC)S(=O)(=O)c1ccc(S(=O)(=O)N2CCC[C@@H](C(=O)NC)C2)cc1`, the IC50 in data set [1] is 13.8 µM; in data set [2] it was more than 10 µM; in data set [3], 2 µM; in data set [4], 8.6 µM.

As for `CCN(CC)S(=O)(=O)c1ccc(S(=O)(=O)N2CCC[C@@H](C(=O)N3CC4(CN(C(=O)OC(C)(C)C)C4)C3)C2)cc1`, the IC50 in data set [1] was 1.1 µM; in data set [2] it was more than 10 µM; in data set [3], 0.3 µM; in data set [4], 0.4 µM.

`CCN(CC)S(=O)(=O)c1ccc(S(=O)(=O)N2CCC[C@@H](C(=O)NC3CN(C(=O)OC(C)(C)C)C3)C2)cc1`: the IC50 was 1.8 µM in data set [1], more than 10 µM in data set [2], 0.1 µM in data set [3] and 0.2 µM in data set [4].

On to `CC(C)c1noc(N2CCN(C(=O)[C@@H]3CCCN(S(=O)(=O)c4ccc(S(=O)(=O)NC5CC5)cc4)C3)CC2)n1`, for which the IC50 in data set [1] is 6.7 µM; in data set [2], more than 10 µM; in data set [3] it was 0.3 µM; in data set [4], 1 µM.

Consider `CCC(CC)S(=O)(=O)c1ccc(S(=O)(=O)N2CCC[C@@H](C(=O)N3CCN(c4nc(C(C)C)no4)CC3)C2)cc1`, for which the results for the t1/2 in data set [5] and in data set [6] were 2.53 min and 7.77 min, respectively. Moreover, the IC50 in data set [1] came out at 0.12 µM; in data set [4], 0.05 µM.

On to `CCOC(=O)C12CC(CN(S(=O)(=O)c3ccc(S(=O)(=O)N(CC)CC)cc3)C1)C2`, for which the IC50 is 1.2 µM in data set [1], more than 10 µM in data set [2], 0.4 µM in data set [3] and 1 µM in data set [4].

Turning to `CCNS(=O)(=O)c1ccc(S(=O)(=O)N2CCC[C@@H](C(=O)N3CCN(c4nc(C(C)C)no4)CC3)C2)cc1`, the IC50 in data set [1] is 6.9 µM; in data set [2], more than 10 µM; in data set [3], 0.2 µM; in data set [4], 3.3 µM.

As for `CCOC(=O)[C@@H]1CCCN(S(=O)(=O)c2ccc3cc(S(=O)(=O)N(CC)CC)ccc3c2)C1`, the IC50 in data set [1] was 13.4 µM; in data set [2], more than 10 µM; in data set [3], more than 3 µM; in data set [4], 7.4 µM.

Take `CCOC(=O)[C@@H]1CCCN(S(=O)(=O)c2ccc(S(=O)(=O)N(CC)C(C)C)cc2)C1`: the IC50 in data set [1] is 1.6 µM; in data set [2], more than 10 µM; in data set [3] it was 1.2 µM; in data set [4] it was 1 µM.

As to `CCN(CC)S(=O)(=O)c1ccc(S(=O)(=O)N2CCC[C@@H](C(=O)NC3CN(C(=O)C4CC4)C3)C2)cc1`, the IC50 in data set [1] was 18.5 µM; in data set [2], more than 10 µM; in data set [3] it was 3.1 µM; in data set [4], 2.8 µM.

On to `CCOC(=O)[C@@H]1CCCN(S(=O)(=O)c2ccc(S(=O)(=O)N(CC)CC)cc2C)C1`, for which the IC50 in data set [1] is 5.6 µM; in data set [2], more than 10 µM; in data set [3] it was 1.2 µM; in data set [4] it was 5.1 µM.

With `CCOC(=O)[C@@H]1CCCN(C(=O)c2ccc(S(=O)(=O)N(CC)CC)cc2)C1`, the IC50 was more than 10 µM in data set [1], more than 10 µM in data set [2], more than 3 µM in data set [3] and more than 10 µM in data set [4].

As to `CCOC(=O)[C@@H]1CCC[C@H](S(=O)(=O)c2ccc(S(=O)(=O)N(CC)CC)cc2)C1` (relative stereo), the half-maximal inhibitory concentration (IC50) is 25.2 µM in data set [1], more than 10 µM in data set [2], more than 10 µM in data set [3] and 21.5 µM in data set [4].

As for `CCOC(=O)[C@@H]1C[C@H](O)CN(S(=O)(=O)c2ccc(S(=O)(=O)N(CC)CC)cc2)C1` (relative stereo), the IC50 in data set [1] was 3.3 µM; in data set [2] it was more than 10 µM; in data set [3], 0.3 µM; in data set [4], 1.3 µM.

Consider `CCN(CC)S(=O)(=O)c1ccc(S(=O)(=O)N2CCC[C@@H](C(=O)N3CCN(C(=O)OC(C)(C)C)CC3)C2)cc1`, for which the IC50 is 0.2 µM in data set [1], more than 10 µM in data set [2], 0.01 µM in data set [3] and 0.07 µM in data set [4].

As to `CCOC(=O)C1CCCCN1S(=O)(=O)c1ccc(S(=O)(=O)N(CC)CC)cc1` (configuration not stated), the IC50 in data set [1] is 12.9 µM; in data set [2] it was more than 10 µM; in data set [3], more than 3 µM; in data set [4] it was 24.6 µM.

Consider `CCOC(=O)[C@@H]1CCCN(S(=N)(=O)c2ccc(S(=O)(=O)N(CC)CC)cc2)C1` (some centres not stated), for which the concentration for half-maximal inhibition (IC50) in data set [1] is 13.3 µM; in data set [2], more than 10 µM; in data set [3], 4.7 µM; in data set [4], 12.1 µM.

Consider `CCN1CC(NC(=O)[C@@H]2CCCN(S(=O)(=O)c3ccc(S(=O)(=O)N(CC)CC)cc3)C2)C1`, for which the IC50 in data set [1] was more than 30 µM; in data set [2], more than 10 µM; in data set [3] it was more than 10 µM; in data set [4], more than 30 µM.

On to `CC(C)c1noc(N2CCN(C(=O)[C@@H]3CCCN(S(=O)(=O)c4ccc(S(=O)(=O)NC(C)(C)C)cc4)C3)CC2)n1`, for which the IC50 in data set [1] is 2.6 µM; in data set [2] it was more than 10 µM; in data set [3] it was 0.1 µM; in data set [4] it was 0.3 µM.

For the compound `CCOC(=O)[C@@H]1CCCN(S(=O)(=O)c2ccc(S(=O)(=O)N(CC)CC)cn2)C1`, the IC50 is 1.4 µM in data set [1], more than 10 µM in data set [2], 0.3 µM in data set [3] and 1.3 µM in data set [4].

Consider `CCOC(=O)N1CCC[C@@H](S(=O)(=O)c2ccc(S(=O)(=O)N(CC)CC)cc2)C1`, for which the IC50 is more than 30 µM in data set [1], more than 10 µM in data set [2], more than 10 µM in data set [3] and more than 30 µM in data set [4].

As for `CCN(CC)S(=O)(=O)c1ccc(S(=O)(=O)N2CCC[C@@H](c3cc(C)no3)C2)cc1`, the IC50 is 7.7 µM in data set [1], more than 10 µM in data set [2], 2.7 µM in data set [3] and 4.9 µM in data set [4].

On to `CCOC(=O)[C@@H]1CCCN(S(=O)(=O)c2ccc(S(=O)(=O)N3CCOCC3)cc2)C1`, for which the IC50 in data set [1] was 23.4 µM; in data set [2], more than 10 µM; in data set [3] it was 4.1 µM; in data set [4], 23.5 µM.

For `CCN(CC)S(=O)(=O)c1ccc(S(=O)(=O)N2CCC[C@@H](C(=O)N3CC4(CCN(C(=O)OC(C)(C)C)C4)C3)C2)cc1`, the IC50 in data set [1] is 0.9 µM; in data set [2], more than 10 µM; in data set [3], 1.3 µM; in data set [4], 0.19 µM.

As a reminder, the IC50 is the concentration at which inhibition is half-maximal.
